Measured values taken from US20090042905A1, “TRIAZOLE DERIVATIVES AS LIGANDS OF G-PROTEIN COUPLED RECEPTORS” (AETERNA ZENTARIS GmbH, priority 2007, published 2009).
Read-outs that look alike come from different tables or passages of the source.

Key:
[1] = test system: differentiated 3T3-L1 cells; assay: Inhibition of isoproterenol-induced lipolysis by QRFP, and its antagonism by compounds, in an adipocyte cell line model (glycerol release); format: cell-based, mouse; details: for IC50 of QRFP-26 (inhibition of isoproterenol-induced lipolysis), shifted in presence of compound: 100 nM isoproterenol; for effect on the inhibitory effect of QRFP on isoproterenol-induced lipolysis: compound at 10^−9 to 10^−7 M
Description: The effectiveness of compounds of the invention to antagonize the QRFP-induced inhibition of isoproterenol-induced lipolysis was investigated using an adipocyte cell line model.
Cells were then were maintained in DMEM with 10% FBS for 2 days before lipolysis study.
All the cellular assays were performed in triplicate for each time point if not otherwise specified.
Differentiated 3T3-L1 cells were first washed with DMEM and incubated with DMEM containing 200 nM adenosine for 1 h at 37° C. The incubation medium was then removed. The lipolysis was induced by incubating the cells with DMEM supplemented with 2% bovine serum albumin fatty acid free and adenosine deaminase (1 U/mL) containing 100 nM of isoproterenol for 90 min at 37° C. The incubation medium (600 μL) was collected for glycerol assay following triglyceride hydrolysis.
After the incubation period, the incubation medium (600 μL) was collected for free glycerol measurement.
To document the antagonistic effect of compounds of the invention on the antilipolytic effect of QRFP, the dose-response curve of QRFP was carried out as described above in presence of selected compounds of the invention at 10^−9 to 10^−7 M. To document the net effect of QRFP and selected compounds of the invention on lipolysis induced by isoproterenol as control, cells were incubated in absence of isoproterenol in presence of QRFP or selected compounds of the invention at 10^−6 M.
Glycerol released was calculated as μmol/mg of total protein.
Lipolysis index was calculated as: (μmol of glycerol released/mg of protein of sample minus μmol of glycerol released/mg of protein in basal condition)/(μmol of glycerol released/mg of protein induced by 100 nM of isoproterenol minus μmol of glycerol released/mg of protein of basal condition).

male C57BL/6J mice = assay: Fasting-induced feeding behavior (food intake) of mice; format: in vivo; details: po

SMILES	IC50 of QRFP-26 (inhibition of isoproterenol-induced lipolysis), shifted in presence of compound ([1]; compound at 10^−7 M)	IC50 of QRFP-26 (inhibition of isoproterenol-induced lipolysis), shifted in presence of compound ([1]; compound at 10^−8 M)	IC50 of QRFP-26 (inhibition of isoproterenol-induced lipolysis), shifted in presence of compound ([1]; compound at 10^−9 M)	effect on the inhibitory effect of QRFP on isoproterenol-induced lipolysis [1]	change in vivo at 0.6 µmol/mouse (male C57BL/6J mice; 20 min, read-out: change of food intake - compounds versus vehicle treated negative control, at 20 min)	change in vivo at 0.6 µmol/mouse (male C57BL/6J mice; 1 h, read-out: change of food intake - compounds versus vehicle treated negative control, at 1 h)	change in vivo at 0.6 µmol/mouse (male C57BL/6J mice; 2 h, read-out: change of food intake - compounds versus vehicle treated negative control, at 2 h)	change in vivo at 0.6 µmol/mouse (male C57BL/6J mice; 4 h, read-out: change of food intake - compounds versus vehicle treated negative control, at 4 h)
CC(C)(N)C(=O)N[C@H](Cc1c[nH]c2ccccc12)c1nnc(Cc2ccccc2)n1Cc1ccccn1 [Compound 39, (R)-N-(1-(5-benzyl-4-(pyridin-2-ylmethyl)-4H-1,2,4-triazol-3-yl)-2-(1H-indol-3-yl)ethyl)-2-amino-2-methylpropanamide]	6.9 nM	6.6 nM	5.6 nM	non-competitive antagonist effect	–	–	–	–
COc1ccc(Cn2c(CCc3ccccc3)nnc2[C@@H](Cc2c[nH]c3ccccc23)NC(=O)c2ccccn2)cc1 [Compound 79, (R)-N-(1-(4-(4-methoxybenzyl)-5-phenethyl-4H-1,2,4-triazol-3-yl)-2-(1H-indol-3-yl)ethyl)picolinamide]	124.4 nM	–	2.829 nM	antagonist effect	–	–	–	–
CC(C)CC(N(C)C)C1(c2ccc(Cl)cc2)CCC1 (stereo not drawn) [Sibutramine, 1-(4-chlorophenyl)-N,N-dimethyl-alpha-(2-methylpropyl)-cyclobutane-methanamine]	–	–	–	–	-63%	-66%	-46%	-21%
